Legend:
MK-2206 = compound: NC1(c2ccc(-c3nc4ccn5c(=O)[nH]nc5c4cc3-c3ccccc3)cc2)CCC1 [MK-2206]; test: relative viability (nuclei count vs DMSO), 5 days (fraction); higher = more cells survive
Procedure, shortened: (§1)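 Five library-drug doses, separated by factors of √10, were pinned into 1536-well plates holding lung cancer cell lines after an overnight stay at 37 °C. Cells were fixed, permeabilised and Hoechst-stained in one step after 5 days without medium change, then imaged at 4×. Viability compares treated-well with vehicle-well nuclei, counted in MetaXpress, as a median across plates. Passing plates had control CV below 25% and at least one doubling.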

Pictilisib = compound: CS(=O)(=O)N1CCN(Cc2cc3nc(-c4cccc5[nH]ncc45)nc(N4CCOCC4)c3s2)CC1 [Pictilisib]; test: as above
Procedure, shortened: as §1

Row | Cell Line | relative viability (MK-2206; 0.01 µM) | relative viability (MK-2206; 0.03162 µM) | relative viability (MK-2206; 0.3162 µM) | relative viability (MK-2206; 1 µM) | relative viability (Pictilisib; 0.02 µM) | relative viability (Pictilisib; 0.06325 µM) | relative viability (Pictilisib; 0.6325 µM) | relative viability (Pictilisib; 1 µM, anchor plate) | relative viability (Pictilisib; 2 µM)
1 | NCI-H838 | 0.98 | 1.01 | 0.918 | 0.92 | 1.01 | 0.902 | 0.722 | 0.455 | 0.426
2 | NCI-H1299 | 1.02 | 1.02 | 1.04 | 1.01 | 1.06 | 1.05 | 1.06 | 0.773 | 0.991
3 | NCI-H1355 | 0.977 | 0.997 | 0.9 | 0.788 | 0.977 | 1 | 0.918 | 0.461 | 0.588
4 | NCI-H1395 | 1 | 0.91 | 0.701 | 0.793 | 1.12 | 1.01 | 0.715 | 0.649 | 0.54
5 | NCI-H1437 | 0.993 | 0.963 | 1.07 | 0.925 | 1.03 | 1.06 | 0.902 | 0.482 | 0.528
6 | NCI-H1563 | 0.925 | 0.975 | 0.885 | 0.764 | 1.01 | 0.929 | 0.668 | 0.626 | 0.533
7 | NCI-H1623 | 0.957 | 1.07 | 0.946 | 0.914 | 0.962 | 0.94 | 0.664 | – | 0.341
8 | NCI-H1648 | 0.873 | 1.06 | 1.06 | 1.05 | 0.783 | 0.906 | 0.39 | – | 0.318
9 | NCI-H1650 | 0.854 | 1.01 | 0.883 | 0.946 | 1 | 1.01 | 0.809 | 0.598 | 0.532
10 | NCI-H1651 | 0.949 | 0.968 | 1.03 | 0.937 | 0.961 | 0.997 | 0.918 | 0.639 | 0.631
11 | NCI-H1666 | 0.973 | 0.9 | 1.04 | 0.846 | 1.06 | 1.11 | 0.961 | 0.47 | 0.679
12 | NCI-H1703 | 0.985 | 0.868 | 0.825 | 0.784 | 0.929 | 0.806 | 0.408 | 0.244 | 0.208
13 | NCI-H1734 | 1.01 | 0.988 | 0.764 | 0.795 | 1.04 | 0.998 | 0.623 | 0.475 | 0.435
14 | NCI-H1755 | 0.955 | 0.989 | 0.907 | 0.918 | 1.01 | 0.979 | 0.925 | 0.434 | 0.639
15 | NCI-H1792 | 0.941 | 0.869 | 0.971 | 0.677 | 0.762 | 1.1 | 0.618 | 0.31 | 0.236

Reference: the supplement of paper PMC10307832
